The values that follow are results of earlier work, collected in US11324962B2, “Magnetic field enhancement of chemotherapy for tumor treatment” (priority 2018, dated 2022).

The conditions of this data set: in vivo.

In the case of `O=C1[O][Pt]2([NH][C@@H]3CCCC[C@H]3[NH]2)[O]C1=O` [oxaliplatin], the biological half-life was 25 minutes.
